{"source": "patent US20250127162A1", "about": "“METHODS AND COMPOSITIONS FOR CONTROLLING PESTS IN RICE” (Globachem NV, priority 2022, published 2025)", "tested_on": "Diabrotica speciosa", "experiment": "Dry bean field trials, Diabrotica speciosa damage and yield (Example 4)", "type": "in vivo", "conditions": "150 L water/ha, two applications 7 d apart; for % Damage, % UNCK: 28 DAB, Lambda-cyhalothrin 100 at 0.15 L/ha; for Yield: plot", "text": "All applications were made with an EC formulation containing 650 g/L of pelargonic acid (e.g., 685 g/L of 95% purity pelargonic acid), an anionic emulsifier and a branched fatty acid ester solvent.\nDiabrotica speciosa is a major pest in rice.\nDry Beans—Diabrotica speciosa", "key": {"[1]": {"conditions": "Trial 1, dry bean, listed as PA 812.5 g/ha"}, "[2]": {"conditions": "Trial 1, dry bean, listed as PA 975 g/ha"}, "[3]": {"conditions": "Trial 1, dry bean, listed as PA 1137.5 g/ha"}, "[4]": {"conditions": "Trial 2, dry bean, listed as PA 812.5 g/ha"}, "[5]": {"conditions": "Trial 2, dry bean, listed as PA 975 g/ha"}, "[6]": {"conditions": "Trial 2, dry bean, listed as PA 1137.5 g/ha"}}, "data": [{"compound": "CCCCCCCCC(=O)O", "note": "[PA 650 g/ha, pelargonic acid]", "values": [{"measurement": "% Damage, % UNCK", "setting": "Trial 1, dry bean", "result": 27.81, "unit": "a % UNCK"}, {"measurement": "% Damage, % UNCK", "setting": "[1]", "result": 82.01, "unit": "b % UNCK"}, {"measurement": "% Damage, % UNCK", "setting": "[2]", "result": 86.96, "unit": "b % UNCK"}, {"measurement": "% Damage, % UNCK", "setting": "[3]", "result": 88.90, "unit": "b % UNCK"}, {"measurement": "Yield", "setting": "Trial 1, dry bean", "result": 2.09, "unit": "b Ton/ha"}, {"measurement": "Yield", "setting": "[1]", "result": 2.28, "unit": "ab Ton/ha"}, {"measurement": "Yield", "setting": "[2]", "result": 2.37, "unit": "ab Ton/ha"}, {"measurement": "Yield", "setting": "[3]", "result": 2.34, "unit": "ab Ton/ha"}, {"measurement": "% Damage, % UNCK", "setting": "Trial 2, dry bean", "result": 39.58, "unit": "b % UNCK"}, {"measurement": "% Damage, % UNCK", "setting": "[4]", "result": 81.64, "unit": "c % UNCK"}, {"measurement": "% Damage, % UNCK", "setting": "[5]", "result": 87.8, "unit": "c % UNCK"}, {"measurement": "% Damage, % UNCK", "setting": "[6]", "result": 88.11, "unit": "c % UNCK"}, {"measurement": "Yield", "setting": "Trial 2, dry bean", "result": 2.11, "unit": "cd Ton/ha"}, {"measurement": "Yield", "setting": "[4]", "result": 2.15, "unit": "cd Ton/ha"}, {"measurement": "Yield", "setting": "[5]", "result": 2.19, "unit": "bc Ton/ha"}, {"measurement": "Yield", "setting": "[6]", "result": 2.29, "unit": "a Ton/ha"}]}]}
